Test results published in the supplement of paper PMC10307832.

Key:
Assay in all cases: relative viability (nuclei count vs DMSO), 5 days (fraction); higher = more cells survive
Pictilisib + Luminespib = compound: CS(=O)(=O)N1CCN(Cc2cc3nc(-c4cccc5[nH]ncc45)nc(N4CCOCC4)c3s2)CC1 [Pictilisib] + CCNC(=O)c1noc(-c2cc(C(C)C)c(O)cc2O)c1-c1ccc(CN2CCOCC2)cc1 [Luminespib] (partner 0.01 µM)
Outline: (§1)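 For relative viability, nuclei counts in treated wells were divided by those in vehicle wells. Lung cancer cell lines had been pin-tool dosed in 1536-well plates the day after seeding and cultured for 5 days, then fixed and stained in one step (final 0.05% Triton X-100, 1% formaldehyde, 1 ug/ml Hoechst) and imaged at 4×. Doses were one drug alone or a fixed anchor-drug dose plus five library-drug doses (not always all listed) in √10 steps, and values are duplicate-plate medians.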

Pictilisib + Bortezomib = compound: CS(=O)(=O)N1CCN(Cc2cc3nc(-c4cccc5[nH]ncc45)nc(N4CCOCC4)c3s2)CC1 [Pictilisib] + CC(C)C[C@H](NC(=O)[C@H](Cc1ccccc1)NC(=O)c1cnccn1)B(O)O [Bortezomib] (partner 0.002 µM)
Outline: as §1

MK-2206 + Tozasertib = compound: NC1(c2ccc(-c3nc4ccn5c(=O)[nH]nc5c4cc3-c3ccccc3)cc2)CCC1 [MK-2206] + Cc1cc(Nc2cc(N3CCN(C)CC3)nc(Sc3ccc(NC(=O)C4CC4)cc3)n2)n[nH]1 [Tozasertib] (partner 0.1 µM)
Outline: as §1

Pictilisib + Palbociclib = compound: CS(=O)(=O)N1CCN(Cc2cc3nc(-c4cccc5[nH]ncc45)nc(N4CCOCC4)c3s2)CC1 [Pictilisib] + CC(=O)c1c(C)c2cnc(Nc3ccc(N4CCNCC4)cn3)nc2n(C2CCCC2)c1=O [Palbociclib] (partner 0.5 µM)
Outline: as §1

Pictilisib + AZD7762 = compound: CS(=O)(=O)N1CCN(Cc2cc3nc(-c4cccc5[nH]ncc45)nc(N4CCOCC4)c3s2)CC1 [Pictilisib] + NC(=O)Nc1cc(-c2cccc(F)c2)sc1C(=O)N[C@H]1CCCNC1 [AZD7762] (partner 0.2 µM)
Outline: as §1

Row | Cell Line | relative viability (Pictilisib + Luminespib; first compound 0.02 µM) | relative viability (Pictilisib + Luminespib; first compound 0.06325 µM) | relative viability (Pictilisib + Luminespib; first compound 0.6325 µM) | relative viability (Pictilisib + Luminespib; first compound 2 µM) | relative viability (Pictilisib + Bortezomib; first compound 0.02 µM) | relative viability (Pictilisib + Bortezomib; first compound 0.06325 µM) | relative viability (Pictilisib + Bortezomib; first compound 0.6325 µM) | relative viability (Pictilisib + Bortezomib; first compound 2 µM) | relative viability (MK-2206 + Tozasertib; first compound 0.01 µM) | relative viability (MK-2206 + Tozasertib; first compound 0.03162 µM) | relative viability (MK-2206 + Tozasertib; first compound 0.3162 µM) | relative viability (MK-2206 + Tozasertib; first compound 1 µM) | relative viability (Pictilisib + Palbociclib; first compound 0.02 µM) | relative viability (Pictilisib + Palbociclib; first compound 0.06325 µM) | relative viability (Pictilisib + Palbociclib; first compound 0.6325 µM) | relative viability (Pictilisib + Palbociclib; first compound 2 µM) | relative viability (Pictilisib + AZD7762; first compound 0.02 µM) | relative viability (Pictilisib + AZD7762; first compound 0.06325 µM) | relative viability (Pictilisib + AZD7762; first compound 0.6325 µM) | relative viability (Pictilisib + AZD7762; first compound 2 µM)
1 | NCI-H661 | 0.969 | 0.938 | 0.953 | 0.813 | 0.771 | 0.738 | 0.616 | 0.258 | 0.377 | 0.354 | 0.373 | 0.364 | 0.446 | 0.384 | 0.347 | 0.299 | – | – | – | –
2 | CAL-12T | 0.452 | 0.249 | 0.339 | 0.143 | 1.13 | 1.15 | 0.816 | 0.527 | 0.289 | 0.304 | 0.317 | 0.327 | 0.385 | 0.604 | 0.457 | 0.167 | 0.609 | 0.845 | 0.724 | 0.626
3 | HARA | 0.767 | 0.622 | 0.113 | 0.166 | 1.21 | 1.14 | 1.08 | 0.842 | 0.0977 | 0.106 | 0.267 | 0.094 | 0.305 | 0.269 | 0.187 | 0.161 | 0.246 | 0.357 | 0.302 | 0.245
4 | NCI-H596 | 0.942 | 0.92 | 0.442 | 0.153 | 1.02 | 1.09 | 0.487 | 0.435 | 0.912 | 1.01 | 0.829 | 0.765 | – | – | – | – | 1.01 | 1.14 | 0.564 | 0.44
5 | LU99A | 0.254 | 0.228 | 0.251 | 0.204 | 1.36 | 1.18 | 0.757 | 0.514 | 0.302 | 0.281 | 0.271 | 0.21 | 0.426 | 0.288 | 0.316 | 0.177 | 0.423 | 0.395 | 0.266 | 0.185
6 | LC-2-ad | 1.17 | 1.07 | 0.757 | 0.607 | 1.05 | 1 | 0.633 | 0.56 | 0.42 | 0.484 | 0.525 | 0.44 | 0.486 | 0.532 | 0.298 | 0.265 | 0.814 | 0.799 | 0.646 | 0.407
7 | NCI-H1650 | 0.224 | 0.175 | 0.201 | 0.207 | 0.199 | 0.205 | 0.207 | 0.172 | 0.364 | 0.377 | 0.408 | 0.346 | 0.381 | 0.334 | 0.223 | 0.193 | – | – | – | –
8 | NCI-H1915 | 0.784 | 0.864 | 0.699 | 0.642 | 0.981 | 1.03 | 0.606 | 0.9 | 0.486 | 0.431 | 0.432 | 0.394 | 0.524 | 0.542 | 0.5 | 0.471 | 0.681 | 0.716 | 0.579 | 0.525
9 | ABC-1 | 0.514 | 0.583 | 0.394 | 0.545 | 0.313 | 0.316 | 0.281 | 0.223 | 0.145 | 0.148 | 0.167 | 0.163 | 0.683 | 0.583 | 0.469 | 0.416 | 1 | 0.741 | 0.657 | 0.609
10 | HCC-44 | 1.11 | 1.01 | 0.54 | 0.344 | 1.04 | 0.9 | 0.994 | 0.631 | 0.993 | 1.1 | 1.03 | 0.98 | 1.02 | 1.01 | 0.955 | 0.977 | 0.978 | 0.994 | 1.05 | 1.22
11 | HCC-78 | – | – | – | – | 0.458 | 0.384 | 0.294 | 0.2 | 1.52 | – | 0.38 | 0.365 | 0.566 | 0.481 | 0.403 | 0.361 | 0.569 | 0.559 | 0.395 | 0.233
12 | LXF-289 | 0.687 | 0.514 | 0.78 | 0.344 | 1.04 | 1.05 | 0.993 | 0.819 | 0.209 | 0.201 | 0.238 | 0.172 | 0.584 | 0.588 | 0.621 | 0.398 | 1.19 | 1.14 | 1.08 | 0.849
13 | 201T | 1.04 | 1 | 0.869 | 0.576 | 1.12 | 1.1 | 1.07 | 0.993 | 0.962 | 0.931 | 0.98 | 0.948 | 0.332 | 0.377 | 0.332 | 0.284 | 0.637 | 0.571 | 0.41 | 0.448
14 | NCI-H1623 | 0.452 | 0.455 | 0.379 | 0.303 | – | – | – | – | 0.458 | 0.394 | 0.456 | 0.44 | – | – | – | – | – | – | – | –
15 | NCI-H1792 | 0.366 | 0.41 | 0.25 | 0.225 | 0.986 | 0.962 | 0.835 | 0.418 | – | – | – | – | 0.62 | 0.693 | 0.512 | 0.34 | 0.631 | 0.575 | 0.339 | 0.109
16 | HCC-366 | – | – | – | – | 1.08 | 1.01 | 0.691 | 0.189 | 0.159 | 0.0953 | 0.165 | 0.0632 | 0.434 | 0.305 | 0.133 | 0.0473 | 0.316 | 0.259 | 0.204 | 0.0615
17 | NCI-H522 | 1.01 | 0.939 | 0.894 | 0.788 | – | – | – | – | 0.593 | 0.518 | 0.62 | 0.513 | 1.07 | 0.785 | 0.833 | 0.692 | 0.967 | 0.865 | 0.673 | 0.571
18 | NCI-H1703 | – | – | – | – | 0.327 | 0.235 | 0.19 | 0.13 | – | – | – | – | – | – | – | – | 0.148 | 0.175 | 0.104 | 0.119
